Assay results as given in patent US10018911B2, “Chemically amplified resist material and resist pattern-forming method” (JSR CORPORATION, priority 2015, dated 2018).

Test: Absorbance measurement of component (b) and derived sensitizing agent, 0.0001% by mass cyclohexane solution
Format: physicochemical
Experimental: The component (b) and the sensitizing agent derived from the component (b) are shown together in Table 2. With respect to each of the components (b) and the sensitizing agents derived from the components (b), a 0.0001% by mass cyclohexane solution thereof was prepared. The absorbance of the solution prepared thus was measured using cyclohexane as a reference solvent and a spectrophotometer (“V-670” available from JASCO Corporation).
The absorbance was evaluated to be: “transparent” in a case where the measurement value of the absorbance was less than 0.01 over the entire wavelength range of no less than 300 nm and no greater than 450 nm; and “absorbing” in a case where the measurement value of the absorbance was no less than 0.01 at at least one wavelength within the entire wavelength range of no less than 300 nm and no greater than 450 nm.

| Compound | Absorbance (300-450 nm) of (b) component |
| --- | --- |
| COc1ccc(C(OC)(OC)c2ccc(OC)cc2)cc1 [Example B-2] | transparent (the measurement value of the absorbance was less than 0.01 over the entire wavelength range of no less than 300 nm and no greater than 450 nm) |
| COc1ccc(C(O)c2ccc(OC)cc2)cc1 [Example B-1, bis(4-methoxyphenyl)methanol] | transparent (the measurement value of the absorbance was less than 0.01 over the entire wavelength range of no less than 300 nm and no greater than 450 nm) |
